The results in this text go back to patent US20070066505A1, “Anthocyanases as detergent additives” (priority 2005, published 2007).

Like-named read-outs stand apart in the source and are kept apart here.

Data set [1] concerns Pichia etchellsii anthocyanase (Pantp, enzyme-5), native. Briefly: Km determination via β-glucosidase activity, anthocyanase of P. etchellsii (enzyme-5). It counts as biochemical. The settings on record: native enzyme-5. How it is done:
The biochemical examinations of the anthocyanase (enzyme-5) of P. etchellsii were performed analogously to the anthocyanases examined up to then.
The temperature optimum was 50° C. and the optimal pH value was 6.5.

Data set [2] concerns Debaryomyces vanrijiae anthocyanase (DVantp, enzyme-4), native. Briefly: Km determination via β-glucosidase activity, anthocyanase of D. vanrijiae (enzyme-4). It counts as biochemical. The note with it: read-out: Km value for cellobiose; established data. The text has this:
Moreover, the molecular weight and the isoelectric point were taken from literature (A. Belancic et al., J. Agric. Food Chem., 51: 1453-1459).

Data set [3] concerns Debaryomyces hansenii anthocyanase (Dantp, enzyme-2), native. As to the kind of experiment: Km determination via β-glucosidase activity, anthocyanase of D. hansenii (enzyme-2). The settings on record: read-out: Km value for cellobiose; native enzyme-2. It is filed as biochemical. As for the experimental part: The biochemical examinations of the anthocyanase (enzyme-2) of D. hansenii were performed corresponding to the anthocyanases examined up to then. Thus, their biochemical parameters were determined by means of β-glucosidase activity determinations. […] D. hansenii anthocyanase has a temperature optimum of 55° C. and a pH optimum of 5.0. […] Furthermore, with this yeast, too, one started to establish the substrate spectrum.

Substrate in data set [4]: OC[C@H]1O[C@@H](O[C@H]2[C@H](O)[C@@H](O)C(O)O[C@@H]2CO)[C@H](O)[C@@H](O)[C@@H]1O
Briefly: Km determination, recombinant anthocyanase (r-enzyme-1) of C. molischiana. It is filed as biochemical, Candida molischiana. The settings on record: other: recombinant anthocyanase (r-enzyme-1); pH 5.5. As for the experimental part: (§1) A. adeninivorans G1211/pAL-ALEU2m-BGLN was tested for the presence of recombinant anthocyanase (Bglnp-r-enz-1). For doing so, the recombinant enzyme was isolated, purified and biochemically characterized.
(§2) The recombinant anthocyanase has parameters very similar to those of C. molischiana enzyme (FIG. 9 and FIG. 10).
(§3) The temperature optimum was established at 40° C. The temperature range in which this anthocyanase was still has more than 80% activity was between 37.5° C. and 50° C. The optimum pH value was 4.0. However, the recombinant anthocyanase has an essentially broader pH tolerance range than the anthocyanase synthesized in C. molischiana. Thus, its activity was still 80% with a pH value of 5.5.

Substrate in data set [5]: O=[N+]([O-])c1ccc(O[C@@H]2O[C@H](CO)[C@@H](O)[C@H](O)[C@H]2O)cc1
The description is as above. It is filed as biochemical, Candida molischiana. The note with it: other: recombinant anthocyanase (r-enzyme-1); pH 5.5. As for the experimental part:
as §1, §2, §3

For orientation: Km means the substrate concentration at which the rate is half of its maximum. Take `O=[N+]([O-])c1ccc(O[C@@H]2O[C@H](CO)[C@@H](O)[C@H](O)[C@H]2O)cc1` [pNPG]: the Km in data set [1] (read-out: Km value for pNPG) came out at 59.7 mM.

Take `OC[C@H]1O[C@@H](O[C@H]2[C@H](O)[C@@H](O)C(O)O[C@@H]2CO)[C@H](O)[C@@H](O)[C@@H]1O` (stereo partly drawn) [cellobiose]: the Km in data set [2] amounted to 8.3 mM; in data set [3], 16.3 mM; in data set [1] (read-out: Km value for cellobiose), 84.5 mM.

B1: Candida molischiana anthocyanase (anthocyanin-β-glucosidase), recombinant, produced in Arxula adeninivorans (r-enzyme-1, rBglnp) (Kuraishia capsulata) (protein)
chain: KNISKAEMENLEHWWSYGRSDPVYPSPEISGLGDWQFAYQRAREIVALMTNEEKTNLTFGSSGDTGCSGMISDVPDVDFPGLCLQDAGNGVRGTDMVNAYASGLHVGASWNRQLAYDRAVYMGAEFRHKGVNVLLGPVVGPIGRVATGGRNWEGFTNDPYLAGALVYETTKGIQENVIACTKHFIGNEQETNRNPSGTYNQSVSANIDDKTMHELYLWPFQDSVRAGLGSIMGSYNRVNNSYACKNSKVLNGLLKSELGFQGFVVSDWGGQHTGIASANAGLDMAMPSSTYWEEGLIEAVKNGTVDQSRLDDMATRIIAAWYKYARLDDPGFGMPVSLAEDHELVDARDPAAASTIFQGAVEGHVLVKNENALPLKKPKYISLFGYDGVSTDVNTVGGGFSFFSFDVKAIENKTLISGGGSGTNTPSYVDAPFNAFVAKAREDNTFLSWDFTSAEPVANPASDACIDFINAAASEGYDRPNLADKYSDKLVEAVASQCSNTIVVIHNAGIRLVDNWIEHENVTGVILAHLPGQDTGTSLIEVLYGNQSPSGRLPYTVAKKASDYGGLLWPTEPEGDLDLYFPQSNFTEGVYIDYKYFIQKNITPRYEFGYGLTYTTFDYSELEVDAITNQSYLPPDCTIEEGGAKSLWDIVATVKFTVTNTGDVAAAEVPQLYVGIPNGPPKVLRGFDKKLIHPGQSEEFVFELTRRDLSTWDVVAQNWGLQAGTYQFYVGRSVFDVPLTSALVFTN
Consider B1, for which the Km in data set [4] came out at 58.27 mM; in data set [5] it was 5.56 mM.
